The record followed here is patent US20220125784A1, “METHODS AND COMPOUNDS FOR INHIBITION OF INACTIVATION OF VOLTAGE-GATED SODIUM CHANNELS” (SIMON FRASER UNIVERSITY, priority 2019, published 2022).

Holding throughout (type): cell-based
Experiment [1] addresses T1, neuronal (Nav1.1) sodium channel (Homo sapiens, UniProt P35498).
T1 construct: expressed in transfected cells
Kind of experiment: High-throughput patch clamp (QPatch/Qube 384), double voltage-pulse protocol, stable HEK293 Nav1.1. On the procedure: (§1) In another set of studies, we used high-throughput patch clamp techniques using the QPatch (Qube) 384 to screen compounds against both neuronal and cardiac sodium channels. We used a different electrophysiology assay (double voltage-pulse protocol; FIG. 3C) to detect potentiators, inhibitors, and compounds that do both. The protocol assesses these parameters at both rest and partially inactivated holding potentials. For this assay, we used nine compounds from Table 2 that were diluted to 50 μM in DMSO for biophysical assessment of channel gating. The extracellular solution used in these experiments was Ringer solution.
(§2) The nine compounds were screened against the wild type (WT) cardiac (Nav1.5) and neuronal (Nav1.1) sodium channel α-subunits stably expressed in Human Embryonic Kidney (HEK293) along with the β1-subunit.
(§3) Currents were assessed by a test pulse of 0 mV from a holding potential at rest (−120 mV) before preconditioning at the appropriate V1/2 for the sodium channel subtype (V1/2=−90 mV and V1/2=−65 mV for Nav1.5 and Nav1.1, respectively) for 10 s. Parameters were tested following 5 min of incubation with the compounds and normalized to control (vehicle). Peak current, the time constant of inactivation, and the area under the curve (AUC) were measured.
(In general: Patch clamp records ionic current or voltage across a cell membrane.)

The target in experiment [2] is T2, cardiac (Nav1.5) sodium channel (Homo sapiens, UniProt Q14524).
T2 construct: expressed in transfected cells
T2 sequence (Q14524 whole entry): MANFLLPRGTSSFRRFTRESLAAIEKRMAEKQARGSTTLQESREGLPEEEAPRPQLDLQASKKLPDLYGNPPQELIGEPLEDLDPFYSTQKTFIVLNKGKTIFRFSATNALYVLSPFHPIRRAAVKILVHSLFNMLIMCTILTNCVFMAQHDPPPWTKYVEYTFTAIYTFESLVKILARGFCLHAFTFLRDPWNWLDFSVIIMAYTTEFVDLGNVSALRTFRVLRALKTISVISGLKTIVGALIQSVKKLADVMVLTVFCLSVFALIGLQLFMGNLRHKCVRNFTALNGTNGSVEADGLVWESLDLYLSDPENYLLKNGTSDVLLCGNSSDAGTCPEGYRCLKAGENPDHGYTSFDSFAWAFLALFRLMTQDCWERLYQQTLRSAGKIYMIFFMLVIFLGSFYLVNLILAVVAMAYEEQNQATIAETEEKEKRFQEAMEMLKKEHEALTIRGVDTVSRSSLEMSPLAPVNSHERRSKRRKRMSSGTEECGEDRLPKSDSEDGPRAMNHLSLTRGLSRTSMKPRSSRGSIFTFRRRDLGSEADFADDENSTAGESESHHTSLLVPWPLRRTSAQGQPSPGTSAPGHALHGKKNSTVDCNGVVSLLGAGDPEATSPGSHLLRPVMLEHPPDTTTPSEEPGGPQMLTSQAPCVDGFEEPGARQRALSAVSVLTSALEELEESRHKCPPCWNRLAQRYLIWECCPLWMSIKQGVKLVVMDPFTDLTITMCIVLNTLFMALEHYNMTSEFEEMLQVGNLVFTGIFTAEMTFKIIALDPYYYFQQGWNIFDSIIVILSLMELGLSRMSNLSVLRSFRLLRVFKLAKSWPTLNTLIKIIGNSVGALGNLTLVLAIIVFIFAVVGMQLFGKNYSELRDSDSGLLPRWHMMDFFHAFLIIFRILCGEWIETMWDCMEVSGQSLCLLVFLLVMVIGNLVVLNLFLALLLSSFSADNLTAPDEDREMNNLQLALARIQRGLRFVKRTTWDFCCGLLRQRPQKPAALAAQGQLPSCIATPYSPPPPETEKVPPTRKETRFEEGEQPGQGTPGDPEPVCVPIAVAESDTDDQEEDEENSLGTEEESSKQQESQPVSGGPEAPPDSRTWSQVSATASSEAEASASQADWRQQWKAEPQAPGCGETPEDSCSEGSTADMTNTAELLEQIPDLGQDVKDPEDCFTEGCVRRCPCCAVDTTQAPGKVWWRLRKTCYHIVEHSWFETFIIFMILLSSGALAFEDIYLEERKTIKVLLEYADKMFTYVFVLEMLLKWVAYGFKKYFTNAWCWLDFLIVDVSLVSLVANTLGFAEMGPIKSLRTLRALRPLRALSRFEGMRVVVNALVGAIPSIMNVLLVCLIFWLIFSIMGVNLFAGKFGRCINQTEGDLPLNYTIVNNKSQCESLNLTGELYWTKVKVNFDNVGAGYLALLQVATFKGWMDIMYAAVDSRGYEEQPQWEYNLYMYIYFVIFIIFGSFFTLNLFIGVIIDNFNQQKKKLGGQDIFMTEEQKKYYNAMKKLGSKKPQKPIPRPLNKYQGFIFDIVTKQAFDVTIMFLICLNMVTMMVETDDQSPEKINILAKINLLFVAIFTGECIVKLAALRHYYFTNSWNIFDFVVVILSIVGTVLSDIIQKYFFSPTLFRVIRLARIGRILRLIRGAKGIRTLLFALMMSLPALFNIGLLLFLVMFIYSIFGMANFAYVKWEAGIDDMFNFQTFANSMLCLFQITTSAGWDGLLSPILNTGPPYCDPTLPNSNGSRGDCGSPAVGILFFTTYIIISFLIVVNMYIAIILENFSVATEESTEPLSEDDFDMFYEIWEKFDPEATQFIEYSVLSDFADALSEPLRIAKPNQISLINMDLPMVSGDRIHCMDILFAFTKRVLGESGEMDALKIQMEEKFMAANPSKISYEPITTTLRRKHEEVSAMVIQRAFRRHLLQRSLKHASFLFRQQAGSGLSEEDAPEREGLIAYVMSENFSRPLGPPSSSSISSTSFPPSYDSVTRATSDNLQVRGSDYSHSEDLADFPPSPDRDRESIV
Kind of experiment: High-throughput patch clamp (QPatch/Qube 384), double voltage-pulse protocol, stable HEK293 Nav1.5. The note with it: for deceleration of fast inactivation onset kinetics compared to control: preconditioning −120 mV. On the procedure: as §1, §2, §3

In experiment [3] the target is T3, WT Nav1.5-α subunits (Homo sapiens, UniProt Q14524).
T3 construct: expressed in transfected cells; host or cells: HEK293 (transient transfection)
T3 sequence (Q14524 whole entry): as above
Kind of experiment: Whole-cell patch clamp, single voltage-pulse protocol (peak INa, conductance, fast inactivation) in transiently transfected HEK293 cells. To be noted: for Peak INa −20 mV: normalized peak INa, 37° C. On the procedure: (§4) In one set of studies, we used a whole-cell patch clamp technique with single voltage-pulse protocols (FIGS. 3A-B) to characterize compounds ZINC38767171, ZINC39699427, ZINC40014265, ZINC64470729, ZINC64470737 and ZINC64470745. Whole-cell patch clamp was performed in extracellular solution containing (in mM): 140 NaCl, 4 KCl, 2 CaCl2, 1 MgCl2, and 10 HEPES (pH 7.4 adjusted with CsOH). The intracellular pipettes were dipped in dental wax and thermally polished to attain a resistance of 1.0-1.5 MΩ. The intracellular solutions contained (in mM): 130 CsF, 10 NaCl, 10 HEPES, and 10 EGTA titrated to pH 7.4. The six compounds, ZINC38767171, ZINC39699427, ZINC40014265, ZINC64470729, ZINC64470737 and ZINC64470745, chosen for electrophysiology characterization, ordered from MolPort (Easy compound ordering services), were diluted to 10 μM, 50 μM, and 100 μM in extracellular solution for biophysical assessment of channel gating.
(§5) The six compounds were screened against wild type (WT) Nav1.5-α subunits at the optimal physiological temperature of 37° C. Human Embryonic Kidney (HEK293) cells were transfected with WT Nav1.5-α subunits (transient transfections). The α subunits were co-expressed with the β1 subunit and eGFP (enhanced green fluorescence protein) in a 2:1:2 ratio, respectively.
Conductance was measured by a protocol that depolarized the membrane from −100 mV to +80 mV in increments of +5 mV for 19 ms. Prior to the test pulse, channels were allowed to recover from fast inactivation at −130 mV for 197 ms. The tested compounds had no effect on the conductance midpoint (FIGS. 6A-F).
At voltages greater than −50 mV, the fast inactivation T values were calculated from the mono-exponential fit to the decay of sodium current.

Experiment [4] deals with T3, WT Nav1.5-α subunits. Nature of the experiment: Whole-cell patch clamp, use-dependence (slow inactivation) protocol at 6 Hz in transiently transfected HEK293 cells. The procedure:
as §4, §5
Slow inactivation (SI) was indirectly determined by measuring use-dependence, which is a physiologically-relevant protocol. The protocol includes a series of 500 110 ms depolarizing pulses to 0 mV followed by a 55 ms-90 mV recovery pulse at a frequency 6 Hz. With repetitive depolarizations, Nav1.5 channels accumulate into slow inactivation.

Setting [5] is: 50 μM, holding potential −120 mV.
[6] abbreviates: HEK293, holding potential −120 mV, read-out: Normalized inhibition of peak sodium current.

Read-outs that look alike come from different tables or passages of the source.

`Cc1nc(-n2cccc2)sc1C(=O)N=c1[nH]c2ccccc2[nH]1` [ZINC12323863, N-(1H-benzimidazol-2-yl)-4-methyl-2-pyrrol-1-yl-thiazole-5-carboxamide]: the “effect on tau of inactivation from holding potential −120 mV” value in experiment [1] (50 μM) was “accelerates inactivation”. Moreover, the “normalized area under curve (AUC) ratio of activated sodium current” value in experiment [1] (setting [5]) is “substantially reduces”. Also, the inhibition at 50 µM in experiment [1] (setting [6]) was approximately 32%; in experiment [1] (HEK293, −65 mV for 10 s, read-out: Normalized inhibition of peak sodium current after 10 s pulse to mid-voltage potential), approximately 80%; in experiment [2] (setting [6]), approximately 32%; in experiment [2] (HEK293, −90 mV for 10 s, read-out: Normalized inhibition of peak sodium current after 10 s pulse to mid-voltage potential), approximately 80%. Also, the “deceleration of fast inactivation onset kinetics compared to control” value in experiment [2] (50 μM) was determined as 1.5 fold.
As to `CN(C)[C@@H](CNC(=O)c1ccc2c(c1)=NC(=O)C(=O)N=2)c1ccco1` [ZINC40014265, N-[(2S)-2-(dimethylamino)-2-(2-furyl)ethyl]-2,3-dioxo-quinoxaline-6-carboxamide], at WT Nav1.5-α subunits [3] (10 μM), the “% Block −20 mV” value is −20.00%, the “fast inactivation onset time constant FI +10 mV” value was 0.23 ± 0.02 ms, the “fast inactivation onset time constant FI −10 mV” value was determined as 0.33 ± 0.03 ms and the “fast inactivation onset time constant FI −30 mV” value is given as 0.63 ± 0.07 ms. On WT Nav1.5-α subunits [3] (10 μM), the “fast inactivation onset time constant FI −50 mV” value amounted to 2.98 ± 0.84 ms and the “Peak INa −20 mV” value is recorded as −0.80 ± 0.06. At WT Nav1.5-α subunits [3] (50 μM), the “% Block −20 mV” value is on record as −37.00%, the “fast inactivation onset time constant FI +10 mV” value came to 0.25 ± 0.03 ms, the “fast inactivation onset time constant FI −10 mV” value was determined as 0.37 ± 0.05 ms and the “fast inactivation onset time constant FI −30 mV” value is recorded as 0.69 ± 0.11 ms. Besides, on WT Nav1.5-α subunits [3] (50 μM), the “fast inactivation onset time constant FI −50 mV” value was found to be 2.18 ± 0.70 ms and the “Peak INa −20 mV” value is listed as −0.63 ± 0.06. Besides, at WT Nav1.5-α subunits [3] (100 μM), the “% Block −20 mV” value is −41.00%, the “fast inactivation onset time constant FI +10 mV” value is recorded as 0.26 ± 0.07 ms, the “fast inactivation onset time constant FI −10 mV” value was 0.37 ± 0.09 ms and the “fast inactivation onset time constant FI −30 mV” value is 0.69 ± 0.17 ms. On WT Nav1.5-α subunits [3] (100 μM), the “fast inactivation onset time constant FI −50 mV” value came out at 2.17 ± 0.73 ms and the “Peak INa −20 mV” value was −0.59 ± 0.06. Besides, at WT Nav1.5-α subunits [3] (Hill curve slope), the “Peak INa Slope” value is 1.064. Moreover, the midpoint of inhibition against WT Nav1.5-α subunits [3] (Hill curve, single voltage-pulse protocol), the IC50, lay at 12.6 µM. For the same compound, in experiment [2] (setting [5]), the “effect on peak INa” value is recorded as “did not inhibit peak sodium current” and the “normalized area under curve (AUC) ratio of activated sodium current” value is recorded as “slightly increased”. Also, the “deceleration of fast inactivation onset kinetics compared to control” value in experiment [2] (50 μM) was determined as 1.5 fold. For the same compound, at WT Nav1.5-α subunits [4] (Hill curve slope), the “UDI Block Slope” value is 0.511. Moreover, the IC50 on WT Nav1.5-α subunits [4] (Hill curve, use-dependence at 6 Hz, read-out: UDI Block IC50) was 269 µM.

By inhibition is commonly meant the relative decrease from the control value, in per cent. The IC50 is the concentration at which inhibition is half-maximal.
